Experimental data: article PMC6407917, “Identification of GSK3186899/DDD853651 as a Preclinical Development Candidate for the Treatment of Visceral Leishmaniasis” (Journal of Medicinal Chemistry, 2018)
pIC50: −log10 of the molar value.

Key:
Test in all cases: biochemical
Parameters in all cases: species or system HEK293/K-562/placenta mixed human extract; Kinobeads chemoproteomic competition binding, quantified by TMT LC-MS/MS, dose response up to 20 uM
MAP3K9 = MAP3K9 (Homo sapiens, UniProt P80192)
PKN3 = PKN3 (Homo sapiens, UniProt Q6P5Z2)
TAOK1 = TAOK1 (Homo sapiens, UniProt Q7L7X3)
STK4 = STK4 (Homo sapiens, UniProt Q13043)
MAP2K5 = MAP2K5 (Homo sapiens, UniProt Q13163)
CDC42BPB = CDC42BPB (Homo sapiens, UniProt Q9Y5S2)
MAPK3 = MAPK3 (Homo sapiens, UniProt P27361)
TESK2 = TESK2 (Homo sapiens, UniProt Q96S53)
BUB1 = BUB1 (Homo sapiens, UniProt O43683)
PRKCD = PRKCD (Homo sapiens, UniProt Q05655)
FYN = FYN (Homo sapiens, UniProt P06241)
STK38 = STK38 (Homo sapiens, UniProt Q15208)
DCK = DCK (Homo sapiens, UniProt P27707)
CHUK = CHUK (Homo sapiens, UniProt O15111)
CLK1 = CLK1 (Homo sapiens, UniProt P49759)
KDR = KDR (Homo sapiens, UniProt P35968)
HIPK2 = HIPK2 (Homo sapiens, UniProt Q9H2X6)
EPHB4 = EPHB4 (Homo sapiens, UniProt P54760)
PHKG2 = PHKG2 (Homo sapiens, UniProt P15735)
HIPK3 = HIPK3 (Homo sapiens, UniProt Q9H422)
SERPINB2 = SERPINB2 (Homo sapiens, UniProt P05120)

Measured: pIC50

Sequence of EPHB4 (P54760 whole entry): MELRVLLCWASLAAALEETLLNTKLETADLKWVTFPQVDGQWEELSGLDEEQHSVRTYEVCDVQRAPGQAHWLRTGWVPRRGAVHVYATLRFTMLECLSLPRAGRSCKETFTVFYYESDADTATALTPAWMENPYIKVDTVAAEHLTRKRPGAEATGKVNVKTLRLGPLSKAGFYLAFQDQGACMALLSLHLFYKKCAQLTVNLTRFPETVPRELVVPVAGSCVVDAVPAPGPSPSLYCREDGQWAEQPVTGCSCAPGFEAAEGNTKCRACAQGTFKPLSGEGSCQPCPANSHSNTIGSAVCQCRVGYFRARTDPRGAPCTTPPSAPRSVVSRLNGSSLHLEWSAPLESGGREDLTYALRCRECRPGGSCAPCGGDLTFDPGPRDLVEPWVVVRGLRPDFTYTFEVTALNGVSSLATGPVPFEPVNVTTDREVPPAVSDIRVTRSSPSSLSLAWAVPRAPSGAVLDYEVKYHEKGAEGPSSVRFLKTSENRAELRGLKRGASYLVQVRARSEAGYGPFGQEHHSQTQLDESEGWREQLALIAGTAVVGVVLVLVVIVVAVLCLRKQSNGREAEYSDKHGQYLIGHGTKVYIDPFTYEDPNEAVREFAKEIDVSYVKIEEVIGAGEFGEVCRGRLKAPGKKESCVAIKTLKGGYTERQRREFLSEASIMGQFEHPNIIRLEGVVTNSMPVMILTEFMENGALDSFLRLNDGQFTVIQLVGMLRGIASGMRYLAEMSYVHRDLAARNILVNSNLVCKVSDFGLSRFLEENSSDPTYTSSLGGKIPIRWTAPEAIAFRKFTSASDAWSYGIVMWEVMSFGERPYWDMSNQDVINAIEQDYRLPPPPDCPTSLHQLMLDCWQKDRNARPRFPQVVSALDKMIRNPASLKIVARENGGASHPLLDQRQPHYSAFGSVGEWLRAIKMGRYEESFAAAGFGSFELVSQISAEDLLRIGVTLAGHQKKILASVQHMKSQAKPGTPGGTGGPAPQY
Sequence of PHKG2 (P15735 whole entry): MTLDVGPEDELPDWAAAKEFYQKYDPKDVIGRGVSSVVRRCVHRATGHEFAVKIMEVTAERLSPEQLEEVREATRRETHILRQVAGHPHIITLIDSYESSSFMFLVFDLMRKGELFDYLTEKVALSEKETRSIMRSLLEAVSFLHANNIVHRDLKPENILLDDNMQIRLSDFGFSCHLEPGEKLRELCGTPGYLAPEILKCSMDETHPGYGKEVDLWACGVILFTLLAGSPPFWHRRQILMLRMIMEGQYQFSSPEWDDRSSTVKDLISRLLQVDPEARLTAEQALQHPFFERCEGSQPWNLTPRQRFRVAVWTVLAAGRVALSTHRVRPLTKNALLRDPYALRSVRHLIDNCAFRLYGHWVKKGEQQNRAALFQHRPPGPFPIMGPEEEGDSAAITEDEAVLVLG
Sequence of STK4 (Q13043 whole entry): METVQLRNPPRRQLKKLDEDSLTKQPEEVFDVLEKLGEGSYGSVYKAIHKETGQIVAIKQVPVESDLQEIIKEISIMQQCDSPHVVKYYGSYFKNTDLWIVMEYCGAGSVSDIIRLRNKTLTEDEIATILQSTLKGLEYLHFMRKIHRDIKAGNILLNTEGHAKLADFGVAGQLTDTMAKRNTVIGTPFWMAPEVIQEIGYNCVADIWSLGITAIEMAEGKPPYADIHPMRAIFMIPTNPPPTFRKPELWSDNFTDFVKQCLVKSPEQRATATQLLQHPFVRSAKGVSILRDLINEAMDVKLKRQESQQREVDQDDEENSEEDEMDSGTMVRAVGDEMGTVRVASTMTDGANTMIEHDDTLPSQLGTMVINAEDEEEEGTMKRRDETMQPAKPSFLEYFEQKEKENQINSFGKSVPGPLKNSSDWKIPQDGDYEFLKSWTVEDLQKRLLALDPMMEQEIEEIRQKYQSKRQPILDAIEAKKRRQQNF
Sequence of HIPK3 (Q9H422 whole entry): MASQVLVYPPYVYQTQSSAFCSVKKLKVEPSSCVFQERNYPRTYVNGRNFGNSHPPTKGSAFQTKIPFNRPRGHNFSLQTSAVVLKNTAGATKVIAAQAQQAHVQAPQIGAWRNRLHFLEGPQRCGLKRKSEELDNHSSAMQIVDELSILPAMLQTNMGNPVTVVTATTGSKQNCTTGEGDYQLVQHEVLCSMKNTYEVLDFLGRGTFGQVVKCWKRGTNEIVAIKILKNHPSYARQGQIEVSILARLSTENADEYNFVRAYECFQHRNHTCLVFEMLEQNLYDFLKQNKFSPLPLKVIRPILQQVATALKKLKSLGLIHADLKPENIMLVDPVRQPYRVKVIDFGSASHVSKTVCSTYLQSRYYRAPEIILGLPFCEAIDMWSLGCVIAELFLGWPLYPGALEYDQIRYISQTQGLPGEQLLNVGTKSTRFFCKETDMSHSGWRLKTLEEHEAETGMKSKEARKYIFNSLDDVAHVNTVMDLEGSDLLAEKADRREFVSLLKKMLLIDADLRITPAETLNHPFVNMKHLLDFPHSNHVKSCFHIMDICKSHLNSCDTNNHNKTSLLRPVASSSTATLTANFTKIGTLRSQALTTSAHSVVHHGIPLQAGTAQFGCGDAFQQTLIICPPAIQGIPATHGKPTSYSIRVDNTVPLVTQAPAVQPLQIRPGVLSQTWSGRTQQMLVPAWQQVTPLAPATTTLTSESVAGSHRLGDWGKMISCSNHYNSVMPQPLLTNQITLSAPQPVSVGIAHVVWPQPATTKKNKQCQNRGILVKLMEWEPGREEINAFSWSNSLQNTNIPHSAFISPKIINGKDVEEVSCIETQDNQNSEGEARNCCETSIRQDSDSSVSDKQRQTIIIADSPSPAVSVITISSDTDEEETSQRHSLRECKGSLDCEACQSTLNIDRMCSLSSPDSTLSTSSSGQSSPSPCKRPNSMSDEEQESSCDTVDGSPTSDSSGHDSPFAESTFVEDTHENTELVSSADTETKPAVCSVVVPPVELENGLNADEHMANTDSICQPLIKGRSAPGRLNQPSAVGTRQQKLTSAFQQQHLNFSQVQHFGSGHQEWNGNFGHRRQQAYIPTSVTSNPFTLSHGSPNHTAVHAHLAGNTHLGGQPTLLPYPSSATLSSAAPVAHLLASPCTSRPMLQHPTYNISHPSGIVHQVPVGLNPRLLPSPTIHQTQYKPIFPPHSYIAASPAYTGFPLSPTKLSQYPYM
Sequence of MAP3K9 (P80192 whole entry): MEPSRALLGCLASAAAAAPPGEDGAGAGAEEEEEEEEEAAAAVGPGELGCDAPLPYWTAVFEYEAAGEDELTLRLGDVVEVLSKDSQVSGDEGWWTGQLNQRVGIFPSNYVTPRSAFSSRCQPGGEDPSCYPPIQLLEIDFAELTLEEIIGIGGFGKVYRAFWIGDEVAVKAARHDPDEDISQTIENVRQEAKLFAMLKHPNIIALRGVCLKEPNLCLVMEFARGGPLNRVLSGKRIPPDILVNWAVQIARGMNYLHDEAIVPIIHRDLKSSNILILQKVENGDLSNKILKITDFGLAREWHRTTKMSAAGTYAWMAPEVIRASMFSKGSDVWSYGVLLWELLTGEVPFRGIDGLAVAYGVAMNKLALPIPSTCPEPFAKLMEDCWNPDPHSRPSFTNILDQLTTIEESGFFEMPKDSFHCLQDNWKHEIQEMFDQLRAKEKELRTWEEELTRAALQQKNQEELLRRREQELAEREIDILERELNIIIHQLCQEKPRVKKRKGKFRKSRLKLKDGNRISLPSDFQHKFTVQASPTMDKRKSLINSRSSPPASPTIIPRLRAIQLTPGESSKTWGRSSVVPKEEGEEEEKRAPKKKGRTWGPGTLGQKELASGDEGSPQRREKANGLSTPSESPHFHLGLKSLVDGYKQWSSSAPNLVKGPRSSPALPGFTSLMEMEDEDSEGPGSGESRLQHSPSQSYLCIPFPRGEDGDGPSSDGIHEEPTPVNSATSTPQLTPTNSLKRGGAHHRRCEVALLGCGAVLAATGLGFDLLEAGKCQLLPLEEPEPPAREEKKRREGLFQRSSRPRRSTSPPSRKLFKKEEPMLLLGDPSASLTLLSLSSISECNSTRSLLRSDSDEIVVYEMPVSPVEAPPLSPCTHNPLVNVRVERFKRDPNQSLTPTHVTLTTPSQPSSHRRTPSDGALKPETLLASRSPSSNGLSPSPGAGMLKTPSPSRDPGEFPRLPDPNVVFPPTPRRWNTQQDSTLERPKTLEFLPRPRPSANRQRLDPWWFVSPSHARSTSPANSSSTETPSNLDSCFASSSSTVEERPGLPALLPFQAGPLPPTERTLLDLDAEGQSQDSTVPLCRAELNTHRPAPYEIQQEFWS
Sequence of MAP2K5 (Q13163 whole entry): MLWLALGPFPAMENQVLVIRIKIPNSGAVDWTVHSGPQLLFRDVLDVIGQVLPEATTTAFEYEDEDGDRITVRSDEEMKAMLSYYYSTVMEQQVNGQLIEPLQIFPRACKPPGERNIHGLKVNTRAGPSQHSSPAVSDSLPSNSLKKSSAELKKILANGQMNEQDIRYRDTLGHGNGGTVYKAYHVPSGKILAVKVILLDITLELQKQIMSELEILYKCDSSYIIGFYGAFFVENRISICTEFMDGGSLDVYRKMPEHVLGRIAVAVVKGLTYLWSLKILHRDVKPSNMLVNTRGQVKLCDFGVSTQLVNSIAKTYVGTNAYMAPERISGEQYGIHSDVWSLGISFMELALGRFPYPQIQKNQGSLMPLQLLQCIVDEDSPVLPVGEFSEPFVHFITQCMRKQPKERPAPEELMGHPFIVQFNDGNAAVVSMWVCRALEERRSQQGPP
Sequence of MAPK3 (P27361 whole entry): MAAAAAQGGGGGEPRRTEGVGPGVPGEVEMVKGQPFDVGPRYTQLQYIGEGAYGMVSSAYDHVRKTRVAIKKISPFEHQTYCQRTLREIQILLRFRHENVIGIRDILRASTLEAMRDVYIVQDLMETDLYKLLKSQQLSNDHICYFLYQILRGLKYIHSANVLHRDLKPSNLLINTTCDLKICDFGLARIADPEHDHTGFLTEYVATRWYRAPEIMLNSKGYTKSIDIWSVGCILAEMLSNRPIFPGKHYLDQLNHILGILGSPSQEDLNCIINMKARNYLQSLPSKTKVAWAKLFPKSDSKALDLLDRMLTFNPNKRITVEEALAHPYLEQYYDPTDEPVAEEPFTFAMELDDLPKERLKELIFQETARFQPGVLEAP

COc1nc(N[C@H]2CC[C@H](NS(=O)(=O)CC(C)C)CC2)nc2[nH]nc(N3CCOC[C@H]3C)c12 [compound 39, N-(trans-4-((4-Methoxy-3-((R)-3-methylmorpholino)-1H-pyrazolo[3,4-d]pyrimidin-6-yl)amino)cyclohexyl)-2-methylpropane-1-sulfonamide]
≤ 4.70: all assays above
